Test results reported in patent US20060030017A1, “Three-dimensional structure of c-Abl” (priority 2004, published 2006).

Target: T1, c-Abl protein tyrosine kinase (Homo sapiens, UniProt P00519)
T1 construct: c-Abl Kinase Fragment, Amino Acids 218-500; Factor Xa cleavage site (IEGR) (N); made in house; host or cells: baculovirus / Sf9 insect cells
T1 sequence (P00519 with tags, fused parts or gaps): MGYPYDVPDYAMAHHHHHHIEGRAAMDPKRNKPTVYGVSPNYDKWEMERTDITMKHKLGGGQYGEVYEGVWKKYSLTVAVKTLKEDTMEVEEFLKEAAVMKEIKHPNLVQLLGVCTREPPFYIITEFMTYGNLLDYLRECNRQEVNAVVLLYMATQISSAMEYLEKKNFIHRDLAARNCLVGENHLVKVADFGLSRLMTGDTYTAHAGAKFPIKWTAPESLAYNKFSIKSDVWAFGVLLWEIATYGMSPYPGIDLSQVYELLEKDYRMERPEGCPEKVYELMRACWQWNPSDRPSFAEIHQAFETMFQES
Assay: c-Abl protein tyrosine kinase filter binding assay ([32P]-ATP, Poly-AEKY substrate)
Assay type: biochemical
Settings: hit from HTD; in vitro confirmation test described, IC50 not given
Method: The top scoring poses are evaluated interactively using molecular graphics to select those compounds which formed favorable intermolecular hydrogen bonds and van der Waals interactions with the c-Abl kinase receptor model, as well as to eliminate compounds containing cis-amides and non-aromatic tautomers. Compounds are also selected for desirable drug-like properties, such as size, lipophilicity and chemical stability. The resulting “hit” compounds are confirmed as leads for drug optimization, by their in vitro evaluation in a test for activity against c-Abl protein tyrosine kinase. The test is conducted as a filter binding assay as follows: The His-tagged kinase domain of c-Abl is cloned and expressed in the baculovirus/Sf9 system. See Bhat et al., J Biol Chem, Vol. 27, pp. 16170-16175 (1997). […] Membranes are counted after drying at ambient temperature, mounting in Packard TopCount 96-well frame, and addition of 10 μL/well of Microscint™ (Packard). The activity of the compounds is quantified as IC50 and IC90 values, as determined from their dose response curves by graphical extrapolation. Thus, IC50 values are determined by linear regression analysis of the percentages for the inhibition of each compound in at least four concentrations (as a rule 0.01, 0.1, 1.0 and […]).

Question: Which “inhibition of c-Abl kinase (hit identified by virtual screening)” value does the source give for COc1cccc(-n2cc(-c3cccc(OCCNCCO)c3)c3ncnc(N)c32)c1 [2-[[2-[3-[4-amino-5-(3-methoxyphenyl)-5H-pyrrolo[3,2-d]pyrimidin-7-yl]phenoxy]ethyl]amino]-ethanol] here?
Answer: specific inhibitors of c-Abl kinase
